Patent US12685757B2, “Method to increase systemic blood pressure in shock” (GEORGETOWN UNIVERSITY, priority 2019, dated 2026)

Experiments:
[1] = system: isolated pressurized (60 mmHg) arteries; experiment: Ex vivo contractility of isolated pressurized arteries; parameters: species or system mice; settings: arterioles
Method: Ex vivo artery physiology: Skeletal muscle arteries (radial artery branch, artery #18, subscapular branch artery #14) and cerebellar branch, cerebral artery #3) were isolated and cannulated with glass micropipettes secured with monofilament threads. The pipette and bathing solution contained modified PSS (125 mM NaCl, 3 mM KCl, 26 mM NaHCO3, 1.25 mM NaH2PO4, 1 mM MgCl2, 4 mM D-glucose, and 2 mM CaCl2)) aerated with a gas mixture consisting of 95% 02, 5% CO2, to maintain pH (pH 7.4). Arterioles were pressure clamped (60 mmHg) using a custom-built apparatus in a heated imaging chamber (Tokai Hit), viewed with a 10× objective using a Nikon TE2000 microscope and recorded by a Retiga 3000 digital camera (QImaging). The arteriole diameter was measured at several locations along each arteriole using the NIH-ImageJ software's edge-detection plug-in (Diameter). The software automatically detects the distance between edges (by resampling a total of five times from adjacent pixels) yielding a continuous read-out SD of a vessel's diameter.

[2] = system: DRG; experiment: nLacZ staining of DRG after systemic TRPV1 agonist (neurotoxicity); type: in vivo; settings: 50 μg/kg; TRPV1-nLacZ reporter mice; preliminary data
Source text: A potential adverse effect of TRPV1 agonists is toxicity to sensory nerves. Indeed, in vivo administration of the ultrapotent agonist, resiniferatoxin (RTX), or even high doses of capsaicin can lead to destruction of TRPV1+ neurons (Szallasi S and Blumberg P M, “Vanilloid receptor loss in rat sensory ganglia associated with long term desensitization to resiniferatoxin” Neurosci Lett 140 (1)(1992)51-54. In one embodiment, TRPV1 agonists that poorly penetrate the CNS, such as DkTx or BrP-LPA, are employed. In vivo toxicity is tested by the administration of TRPV1 agonists in TRPV1^PLAP-nLacZ mice based on the highest cumulative doses utilized in EXAMPLE 5. One week later, DRG are isolated and analyzed for nLacZ staining. […] This analysis therefore determines TRPV1 agonist neurotoxicity and forms an assay for toxicity limiting strategies. In one embodiment, BrP-LPA is employed as a more hydrophilic molecule than capsaicin with less neurotoxicity. In another embodiment, DkTx, with limited CNS penetration, is employed to avoid neurotoxicity.
X-gal staining. TRPV1^PLAP-nlacZ mice were anesthetized with isoflurane and perfused through the heart using PBS (0.1M, pH 7.3) followed by ice-cold 2-4% buffered paraformaldehyde. […]

## resiniferatoxin
[1]
  response to prolonged application: non-desensitizing response
[2]
  nLacZ staining in DRG: nearly completely abolishes nLacZ staining
